Assay results published in patent publication US11773081B2, “Pharmaceutical composition for preventing or treating wound, comprising indirubin derivative as active ingredient” (CK Regeon Inc., priority 2018, dated 2023).

What was measured:
mouse acute wound [1] = assay: Wound healing effect of extract and indirubin derivative mixtures in mouse acute wound (Test Example 6); format: in vivo; conditions: mouse acute wound tissue, fluorescence staining
Description: Wound healing-promoting effect was investigated after treating an animal model with the indirubin derivative of Example 1 (0.5 mM), the indirubin derivative of Example 2 (0.5 mM) or the mixtures of Examples 12 and 13 (0.5 mM indirubin derivative mixed with 1 μg/mL Euodia sutchuenensis Dode extract).
The hair on the back of 7-week-old C3H mouse that entered the resting period was removed and a 1.5×1.5 cm^2 wound was made on the hair-removed region. A sample was applied to a positive control group, once daily for 12 days. After measuring wound size of the experimental animal on days 0 and 12, the wound tissue was fixed by immersing in 4% paraformaldehyde, embedded in paraffin and then sliced into 4 μm thickness. The sliced tissue was deparaffinized, rehydrated and then the degree of re-epithelialization was compared. Masson's trichrome staining and Picrosirius red staining were conducted for evaluation of the degree of collagen synthesis. For Masson's trichrome staining, a slide was immersed in Weigert's iron hematoxylin solution for 10 minutes and in Biebrich scarlet-acid fuchsin and aniline blue for 5 minutes each. […] The sliced skin tissue was fluorescence-stained using β-catenin, PCNA, keratin 14 and collagen I antibodies and was observed using a fluorescence microscope (FIG. 9a). […]

diabetic wound = assay: Effect of treating diabetic wound (Test Example 9); format: in vivo; conditions: diabetes-induced mouse; for healing of the wound site: 0.8×0.8 cm^2 wound, 20 μL once daily for 14 days, VPA 500 mM; for re-epithelialization (H&E): 14 days
Description: 3-week-old male C57BL/6N mice (Koatech, South Korea) were used. After accustoming the mice for a week to normal feed, high-fat diet (Product Data—D12492; 60% kcal, hereinafter referred to as HFD) was given for 4 weeks. Then, a diabetes-induced animal model was prepared by intraperitoneally injecting 40 mg/kg streptozocin (Sigma) once daily for a week. The mice were kept in cages maintained at constant temperature (22±2° C.) and relative humidity (40-60%) with light/dark cycles of 12/12 hours.
6 mice of the normal control group and 6 mice per test group of the diabetes-induced animal model of Test Example 7 were prepared. The hair on the back was removed and a 0.8×0.8 cm^2 wound was made on the hair-removed region.
For the normal control group, only 20 μL of an emulsion solution (Kollipore®EL:Tween 80:PEG 400 at a mixing weight ratio of 80:6:14) was applied to the wound site once daily for 14 days. For the negative control group, only 20 μL of the emulsion solution (Kollipore®EL:Tween 80:PEG 400 at a mixing weight ratio of 80:6:14) was applied to the wound site once daily for 14 days. For the positive control group (VPA), 20 μL of a composition prepared by mixing 500 mM VPA in an emulsion solution was applied to the wound site once daily for 14 days.
For the first test group, 20 μL of A3334 (Example 1) was applied to the wound site once daily for 14 days. For the second test group, 20 μL of A3051 (Example 2) was applied to the wound site once daily for 14 days. Then, the wound site of each group was photographed and the wound area was measured (FIG. 14). On day 14, after euthanizing the mouse with carbon dioxide, the wound site tissue was harvested and the histological structure was observed.
Specifically, the wound site tissue obtained from the normal control group, the negative control group, the positive control group or the first or second test group was fixed by immersing in 4% paraformaldehyde, embedded in paraffin and then sliced into 4 μm thickness. The sliced tissue was deparaffinized, rehydrated and then stained with hematoxylin (purple) and eosin (pink) for observation of histological structure.
Specifically, the wound site tissue obtained from the normal control group, the negative control group, the positive control group or the first or second test group was fixed by immersing in 4% paraformaldehyde, embedded in paraffin and then sliced into 4 μm thickness. The sliced tissue was deparaffinized, rehydrated and then stained with Van Gieson's stain and Masson's trichrome for observation of histological structure. For the Van Gieson's staining, the sliced tissue was immersed in Weigert's solution for 10 minutes and in picrofuchsin solution for 2 minutes. For the Masson's trichrome staining, the sliced tissue was immersed in Weigert's iron hematoxylin solution for 10 minutes and in Biebrich scarlet-acid fuchsin and Aniline blue for 5 minutes each.
Specifically, the wound site tissue obtained from the normal control group, the negative control group, the positive control group or the first and second test groups was fixed by immersing in 4% paraformaldehyde and angiogenesis was observed.

HaCaT cells [2] = assay: Cell migration of keratinocytes, Euodia sutchuenensis Dode extract and indirubin derivative mixtures (Test Example 5); format: cell-based, human; conditions: 18 hours
Description: Cell migration was compared after treating cells with the indirubin derivative of Example 1 (0.1 μM, 1 μM), the indirubin derivative of Example 2 (0.1 μM, 1 μM) or the mixtures of Examples 12 and 13 (0.1 μM and 1 μM indirubin derivative mixed with 1 μg/mL Euodia sutchuenensis Dode extract, respectively).
A non-treated control group (con), a group treated with the Euodia sutchuenensis Dode extract of Example 8 (1 μg/mL) alone (Euodia sutchuenensis Dode 1 μg/mL) and a positive control group treated with 100 μM VPA (valproic acid) were prepared.
Experiment was conducted as follows. First, HaCaT cells were cultured in a 12-well plate for 24 hours. The HaCaT cells are human keratinocytes which are known to play an important role in wound healing. DMEM containing 10% FBS was used. After the culturing for 24 hours was completed, the medium was replaced with DMEM containing 5% FBS and a scratch was made at the center of the cells using a 1000p (blue) tip. Then, after treating the scratched area with a sample, cell migration and motility was observed 18 hours later.
As the sample, the indirubin derivative of Example 1 (0.1 μM, 1 μM), the indirubin derivative of Example 2 (0.1 μM, 1 μM) or the mixtures of Examples 12 and 13 (0.1 μM and 1 μM indirubin derivative mixed with 1 μg/mL Euodia sutchuenensis Dode extract, respectively) was used. […]

mouse acute wound [3] = assay: Wound healing effect of mixtures in mouse acute wound (Test Example 4); format: in vivo; conditions: C3H mouse; Example 2 0.5 mM, Example 5 2.5 mM, 5 mM; 20 μL once daily for 12 days
mouse acute wound [4] = assay: Wound healing and collagen synthesis in mouse acute wound (Test Example 2); format: in vivo
Description: The wound healing-promoting effect of the indirubin derivatives prepared in Examples 1 and 2, the indirubin derivative of Comparative Example 1 (10) and EGF, known as an existing wound healing agent, as a positive control group was investigated through animal experiments.
The hair on the back of 7-week-old C3H mouse that entered the resting period was removed and a 1.5×1.5 cm^2 wound was made on the hair-removed region. 20 μL of a vehicle (10% DMSO, 45% ethanol, 18% propylene glycol, 27% water) and the indirubin derivative of Comparative Example 1 (10) were applied to a control group and a comparison group, respectively, once daily for 12 days. For the positive control group, 100 μM EGF was applied once daily for 12 days. For a first test group, 20 μL of the indirubin derivative of Example 2 (A3051) was applied once daily for 12 days. For a second test group, 20 μL of the indirubin derivative of Example 1 (A3334) was applied once daily for 12 days.
The tissue of each experimental mouse was fixed by immersing in 4% paraformaldehyde, embedded in paraffin and then sliced into 4 μm thickness. The sliced tissue was deparaffinized, rehydrated and then stained with Masson's trichrome and Picrosirius red for evaluation of the degree of collagen synthesis. For Masson's trichrome staining, a slide was placed in Weigert's iron hematoxylin solution for 10 minutes and in Biebrich scarlet-acid fuchsin and aniline blue for 5 minutes each. For Picrosirius red staining, a slide was placed in Weigert's solution for 8 minutes and in Picrosirius red for 1 hour.

HaCaT cells [5] = assay: Cell motility of keratinocytes, indirubin derivative and low-molecular-weight compound mixtures (Test Example 3); format: cell-based, human; conditions: HaCaT scratch; 18 hours later; methyl vanillate 5 μM, hesperidin 1 μM, quercitrin 1 μM
Description: For analysis of wound healing effect, cell motility was compared for treatment with the indirubin derivative prepared in Example 2, the methyl vanillate of Example 5, the hesperidin of Example 6, the quercitrin of Example 7 and the mixtures prepared in Examples 9-11.
HaCaT cells, which are human keratinocytes playing an important role in wound healing, were cultured in a 12-well plate for 24 hours using DMEM containing 10% FBS. Then, after replacing the medium with DMEM containing 5% FBS, a scratch was made at the center of the cells using a 1000p (blue) tip. Then, after treating the scratched area with each of the indirubin derivative prepared in Example 2, the methyl vanillate of Example 5, the hesperidin of Example 6, the quercitrin of Example 7 and the mixtures prepared in Examples 9-11 at a concentration of 1 μM or 5 μM, cell motility was observed 18 hours later.
Specifically, the concentration of the indirubin derivative prepared in Example 2, the hesperidin of Example 6 and the quercitrin of Example 7 was 1 μM, the concentration of the methyl vanillate of Example 5 was 5 μM, and the mixtures prepared in Examples 9-11 were prepared by mixing 1 μM indirubin derivative with 5 μM methyl vanillate, 1 μM hesperidin or 1 μM quercitrin.
The control group (control) means non-treated keratinocytes. […]

[6] = C3H mouse acute wound, once daily for 12 days, vs EGF

CO/N=C1/C(=C2/C(=O)Nc3cc(Cl)c(Cl)cc32)Nc2ccccc21 [Example 2, 5,6-dichloroindirubin-3′-methoxime]
expression of β-catenin, PCNA, keratin 14 and collagen I (mouse acute wound [1]): slightly lower as compared to the positive control group
angiogenesis around the wound site (diabetic wound): increased angiogenesis
healing of the wound site (diabetic wound): healing of the wound site was promoted similarly to the normal control group
re-epithelialization (H&E) (diabetic wound): re-epithelialization occurred quickly
collagen synthesis (Van Gieson's stain, Masson's trichrome) (diabetic wound; vs normal, negative and positive control group (VPA)): increased collagen synthesis
recovery of cell migration rate (%) as compared to the control group (HaCaT cells [2]; first value of 'respectively' (0.1 μM indirubin derivative; mixture with 1 μg/mL extract)): 50%
recovery of cell migration rate (%) as compared to the control group (HaCaT cells [2]; second value of 'respectively' (1 μM indirubin derivative; mixture with 1 μg/mL extract)): 114%
acute wound healing as compared to the control group or the positive control group (mouse acute wound [3]): healed quickly
quantity of collagen (Masson's trichrome, Picrosirius red, van Gieson's stain) (mouse acute wound [4]; C3H mouse acute wound tissue, vs control group, Comparative Example 1, positive control group): remarkably increases the quantity of collagen
re-epithelialization of acute wound (mouse acute wound [4]; [6]): re-epithelialized comparably to or faster than the positive control group EGF
scar-reducing effect, repair of the epidermal layer of skin (mouse acute wound [4]; [6]): very effective in reducing scarring
wound repair effect as compared to the positive control group EGF (mouse acute wound [4]; C3H mouse, 1.5×1.5 cm^2 wound, 20 μL once daily for 12 days, EGF 100 μM): 2-6 times

COC(=O)c1ccc(O)c(OC)c1 [Example 5, Methyl vanillate, reference compound]
cell motility compared with the control group (HaCaT cells [5]): no difference in cell motility
acute wound healing as compared to the control group or the positive control group (mouse acute wound [3]): healed quickly

COc1ccc([C@@H]2CC(=O)c3c(O)cc(O[C@@H]4O[C@H](CO[C@@H]5O[C@@H](C)[C@H](O)[C@@H](O)[C@H]5O)[C@@H](O)[C@H](O)[C@H]4O)cc3O2)cc1O [Example 6, Hesperidin]
cell motility compared with the control group (HaCaT cells [5]): no difference in cell motility

CCCC(CCC)C(=O)O [VPA, valproic acid, reference compound]
healing of the wound site (diabetic wound): wound healing was delayed similarly to the negative control group
re-epithelialization (H&E) (diabetic wound): re-epithelialization did not occur even after 14 days
